A short description of data set [1]: in vivo. The arrangement: species or system male Sprague-Dawley rats. As to conditions: rat, BA. On the procedure: (§1) The experiment was carried out according to the Yasuhara's method using intestinal loop in rats [see Journal of Pharmacobio-Dynamics, 2, 251 (1979)]. That is, male Sprague-Dawley rats weighing 220-260 g were fasted an overnight prior to surgery; however drinking water was readily accessible. The rats were anesthetized by sodium pentobarbital using an intraperitoneal injection of 50 mg/kg. The small intestine was exposed by a midline abdominal incision. The intestinal loop studied was used approximately 15 cm of the duodenal-jejunal site that was approximately 2 cm off the outlet of bile duct.
The suspension or solution containing active ingredients was directly administered into the loop and the both ends of the loop were closed. […] The active ingredient and the degradation products in sample were determined with high pressure liquid chromatography. […]
When Experiment 1 was carried out by using Compound A and D, blood was collected after a given period of time (0, 15, 30, 60 and 120 minutes after). The concentration of the active ingredient in blood was determined with high pressure liquid chromatography, and Area Under the plasma concentration-time Curve (AUC) was calculated and then bioavailability (BA) was calculated according to the following formula by comparing with AUC in intravenous administration. […]

Data set [2] is described as follows: in vivo. The arrangement: species or system male Beagle dogs. Particulars: dog, plasma, po, read-out: BA. Here is the method:
When Experiment 1 was carried out by using Compound A and D, blood was collected after a given period of time (0, 15, 30, 60 and 120 minutes after). The concentration of the active ingredient in blood was determined with high pressure liquid chromatography, and Area Under the plasma concentration-time Curve (AUC) was calculated and then bioavailability (BA) was calculated according to the following formula by comparing with AUC in intravenous administration. [formula] [AUCid]: AUC in intraduodenal administration [AUCiv]: AUC in intravenous administration
Each one soft capsule prepared in Reference Example 1, 2, 3, 4, 5 and 6 (used only a suspension of Example 2 (compound B) in Reference Example 4,5 and 6) was administered orally with 50 ml of water to six male Beagle dogs fasted an overnight (aged one to two and weighing 10±1 kg). By the same procedures as described in Experiment 2, the concentration of the active ingredient in blood, AUC, and then BA were calculated.
^1 Comparison: Compound A or Compound B (10 mg/5 ml) of water/kg
animal body weight) was orally administered.

Data set [3] in a line: in vivo. The arrangement: species or system male Sprague-Dawley rats. Particulars: rat, 5 mg/0.5 ml/animal, read-out: Remaining ratio of the active ingredient in small intestine; for remaining at 5 min: 5 minutes after; for remaining at 0.25 h: 15 minutes after. Here is the method:
The inhibitory effect of MCG on the degradation of esters of guanidinobenzoic acid in small intestine
as §1
The suspension or solution containing active ingredients was directly administered into the loop and the both ends of the loop were closed. The experiment with Compound G and I was carried out further by adding pancreatic juice and bile of other rats into the loop by cannula. After a given period of time, the loop was cut out. The contents were washed out with physiological salt solution and/or ethanol, and thereto was added a mixture of 0.1N aqueous methanesulfonic acid, 1,2-dichloroethane and isopropanol. The obtained mixture was centrifuged and the resulting supernatant was used as a sample. In the case of Compound D to H, the washings were directly used as a sample. The active ingredient and the degradation products in sample were determined with high pressure liquid chromatography.
Compound A: p-(p-guanidinobenzoyloxy)phenylacetic acid N,N-dimethylcarbamoylmethyl ester methanesulfonate [drawing 2] Compound B: p-guanidinobenzoic acid 6-amidinonaphth-2-yl ester dimethanesulfonate [drawing 3] Compound C: p-guanidinobenzoic acid methyl ester methanesulfonate [drawing 4] Compound D: 7-(3-tosylaminobicyclo[2.2.1]heptan-2-yl)-5Z-heptenoic acid ethyl ester [drawing 5] Compound E: salicylic acid ethyl ester [drawing 6] Compound F: aspirin [drawing 7] Compound G: 6-keto-16S,18S-ethano-20-ethyl-PGE1 leucine amide [drawing 8] Compound H: N-[3-[N-(4-chlorobenzyl)carbamoyl]propanoyl]-L-prolinal [drawing 9] Compound I: 7-(3-tosylaminobicyclo[2.2.1]heptan-2-yl)-5Z-heptenoic acid glycine amide [drawing 10] (wherein G is a guanidino group.)
H2 O: dissolving in the ratio of 5 mg of active ingredient/0.5 ml of water/animal.
MCM8(glyceryl monocaprylate): suspending in the ratio of 5 mg of active ingredient/0.5 ml of MCM8/animal.
MCT8(glyceryl tricaprylate): suspending in the ratio of 5 mg of active ingredient/0.5 ml of MCT8/animal.
2. 0.5 ml of physiological salt solution (referred to "SALT") for Compound D instead of water, because of its water-insoluble character.
3. 0.1 mg of Compound G were used because of its strong pharmacological effect, and isotonic phosphate buffer solution (referred to "PHOS") (pH 6.5) instead of water was used because of its water-insoluble character.

Data set [4] can be described thus: Water solubility (remark on administration). Type of data set: physicochemical.

Five molecules from US5004612A, “Pharmaceutical compositions comprising esters or amides as active ingredients” (priority 1987, dated 1991) can be followed below.

Read-outs that look alike come from different tables or passages of the source.

On to `CN(C)C(=O)COC(=O)Cc1ccc(OC(=O)c2ccc(NC(=N)N)cc2)cc1.CS(=O)(=O)O` [Compound A, p-(p-guanidinobenzoyloxy)phenylacetic acid N,N-dimethylcarbamoylmethyl ester methanesulfonate], for which the bioavailability in data set [1] came out at 3%; in data set [2] (10 mg/kg, Comparison A (10 mg/5 ml of water/kg body weight)), 6.3 ± 2.4%; in data set [2] (Reference Example 1 (soft capsule of Example 1 suspension)), 10.9 ± 4.3%; in data set [2] (Reference Example 2 (enteric-coated soft capsule, carboxymethylethyl cellulose)) it was 18.4 ± 7.3%; in data set [2] (Reference Example 3 (enteric-coated soft capsule, hydroxypropylmethyl cellulose acetate succinate)) it was 17.2 ± 11.5%.
For the molecule `CS(=O)(=O)O.CS(=O)(=O)O.N=C(N)Nc1ccc(C(=O)Oc2ccc3cc(C(=N)N)ccc3c2)cc1` [Compound B, p-guanidinobenzoic acid 6-amidinonaphth-2-yl ester dimethanesulfonate], the results for the remaining at 5 min in data set [3] (H2O (COMPARISON)), in data set [3] (MCM8 (INVENTION)) and in data set [3] (MCT8 (INVENTION)) were 68.8 ± 1.7%, 90 ± 15.6% and 80 ± 3.2%, respectively. Also, the results for the remaining at 0.25 h in data set [3] (H2O (COMPARISON)), in data set [3] (MCM8 (INVENTION)) and in data set [3] (MCT8 (INVENTION)) were 27.5 ± 5.2%, 70.5 ± 12.1% and 60.8 ± 7.5%, respectively. For the same molecule, the bioavailability is 1.7 ± 1.2% in data set [2] (10 mg/kg, Comparison B (10 mg/5 ml of water/kg body weight)); 3.2 ± 1.7% in data set [2] (Reference Example 4 (soft capsule of Example 2 suspension)); 5 ± 2.5% in data set [2] (Reference Example 5 (enteric-coated soft capsule, as Reference Example 2)); 5.1 ± 2.1% in data set [2] (Reference Example 6 (enteric-coated soft capsule, as Reference Example 3)).
Turning to `COC(=O)c1ccc(NC(=N)N)cc1.CS(=O)(=O)O` [Compound C, p-guanidinobenzoic acid methyl ester methanesulfonate], the solubility in water result in data set [4] is “poor solubility”.
Turning to `CCOC(=O)CCC/C=C\CC1C2CCC(C2)C1NS(=O)(=O)c1ccc(C)cc1` (stereo not drawn) [Compound D, 7-(3-tosylaminobicyclo[2.2.1]heptan-2-yl)-5Z-heptenoic acid ethyl ester], the solubility in water result in data set [4] is “water-insoluble”.
As for `CCCC[C@H]1CC[C@H]([C@H](O)/C=C/[C@H]2[C@H](O)CC(=O)[C@@H]2CC(=O)CCCCC(=O)NC(CC(C)C)C(=O)O)C1` (stereo partly drawn) [Compound G, 6-keto-16S,18S-ethano-20-ethyl-PGE1 leucine amide], the solubility in water result in data set [4] is “water-insoluble”.
